Molecular target: HIV-1 RT (Human immunodeficiency virus type 1 group M subtype B, UniProt P03366)
Experiment: Steady-state competition assay, IC50 determination
Type: biochemical
Settings: dTTP incorporation, ratio of IC50 values

## Cc1cc(C#CCOCCOCCOCCOCCOCC#Cc2cn([C@H]3C=C[C@@H](COP(=O)(O)OP(=O)(O)OP(=O)(O)O)O3)c(=O)[nH]c2=O)cc(C)c1Oc1ccnc(Nc2ccc(C#N)cc2)n1 [d4TTP-4PEG-TMC, d4U-Propynyl-4-PEG-propynyl-TMC-triphosphate]
  fold improvement of polymerization inhibition over propargyl-4PEG-TMC: 40 fold
  fold improvement of polymerization inhibition relative to the TMC-derivative: approximately 4.3 fold
Listed as triphosphate of d4T-4PEG-TMC
  fold improvement of polymerization inhibition relative to the TMC-derivative: 4.3 fold

## C#CCOCCOCCOCCOCCOCC#Cc1cc(C)c(Oc2ccnc(Nc3ccc(C#N)cc3)n2)c(C)c1 [propargyl-4PEG-TMC, 4-[4-(4-{3-[2-(2-{2-[2-(Prop-2-ynyloxy)ethoxy]ethoxy}ethoxy)-ethoxy]prop-1-ynyl}-2,6-dimethylphenoxy)pyrimidin-2-ylamino]-benzonitrile]
  fold decrease in potency relative to the TMC-derivative: 10 fold

From article PMC3733247 (Journal of medicinal chemistry, 2013)
